Assay results published in patent publication US20090023773A1, “COMPOSITIONS AND METHODS FOR MODULATING GATED ION CHANNELS” (PainCeptor Pharma Corporation, priority 2007, published 2009).

Tests used:
[1] = target: T1, recombinant homomeric hASIC1a channels (Homo sapiens, UniProt P78348); assay: Two-electrode voltage clamp in Xenopus laevis oocytes expressing gated ion channels (Example 4); type: cell-based; details: for IC50: Table 1, generated using oocytes as in Example 4; for reduction in the current evoked by a mild pH stimulation: acid-induced inward currents in oocytes injected with hASIC1a cDNA, FIGS. 2A-2C
T1 construct: expressed in transfected cells; host or cells: Xenopus laevis oocytes (nuclear microinjection of expression vector such as pcDNA3)
T1 sequence (P78348 1-528): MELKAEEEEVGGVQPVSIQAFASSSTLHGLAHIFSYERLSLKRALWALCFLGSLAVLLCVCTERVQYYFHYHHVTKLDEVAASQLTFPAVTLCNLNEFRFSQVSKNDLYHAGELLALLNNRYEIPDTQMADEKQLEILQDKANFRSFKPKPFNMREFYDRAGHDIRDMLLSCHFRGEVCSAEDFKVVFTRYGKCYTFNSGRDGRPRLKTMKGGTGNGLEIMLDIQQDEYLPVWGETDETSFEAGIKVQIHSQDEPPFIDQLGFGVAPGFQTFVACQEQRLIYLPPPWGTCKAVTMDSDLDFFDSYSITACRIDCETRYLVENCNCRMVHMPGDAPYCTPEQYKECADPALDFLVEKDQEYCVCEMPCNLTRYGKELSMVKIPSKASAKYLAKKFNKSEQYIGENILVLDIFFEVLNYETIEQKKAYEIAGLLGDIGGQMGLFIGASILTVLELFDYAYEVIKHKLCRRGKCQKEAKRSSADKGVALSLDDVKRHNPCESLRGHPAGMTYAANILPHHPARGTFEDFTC

[2] = system: acute paw inflammation caused by intraplantar injection of λ-carrageenan; assay: Carrageenan model for pain (Example 8); type: in vivo; details: rat; 120 mg/kg PO, 30 min prior to carrageenan; 4 h post-carrageenan
Method: Acute inflammatory hyperalgesia is induced in rats by unilateral injection of 150 μl of a 3% solution of λ-carrageenan into the plantar surface of the left hind paw 3-5 hours prior to testing. Thermal hyperalgesia, mechanical allodynia, mechanical hyperalgesia, weight bearing asymmetry and paw inflammation were determined. Rats are pretreated with test compounds either administered intravenously (IV), by subcutaneous injection (SC) or by oral gavage (PO).
Thermal nociceptive thresholds are determined according to the method described elsewhere (Hargreaves et al., 1988). Briefly, through the glass surface, a radiant heat source (8V, 50 W projector bulb) is focused onto the plantar surface of the hind paw. The rat's paw-withdrawal latency to this stimulus is recorded to the nearest 0.1 s. Each latency score is an average of three trials, which are separated by at least 5 min. In all rats, both the injured and uninjured hind paws are similarly tested, allowing direct comparisons between inflamed and non-inflamed paws. […]
Mechanical hyperalgesia is determined by measuring the difference of withdrawal thresholds in response to increasing pressure in the inflamed vs contralateral paw using the Randall-Sellito Paw pressure meter (IITC Life Science) (Randall L O and Sellito J J., 1957). Briefly, rats are held in a contention jacket suspended by a stand and allowed to acclimate for 10 min. Then the tips of the paw pressure applicator are positioned close to the middle of the plantar and the dorsal area of the paw, avoiding the saphenous nerve innervations and an increasing pressure is applied until the rat removes it. Measures are performed in triplicate for each paw by alternating each paw with an interval of at least 1 min to avoid sensitization. […]
Carrageenan induced paw oedema is measured with a plethysmometer (IITC Life Science). Briefly, a mark is made on the ankles of the rat and the ipsi and contralateral paw are submerged 3 times into water up to the mark in order to determine the paw volume by calculation of water displacement.

[3] = system: chemically-induced spontaneous pain evoked by intraplantar injection of formalin; assay: Formalin test, model of acute tonic pain (Example 7); type: in vivo; details: rat; SC, 10 and 300 μmol/kg, 30 min prior to formalin; FIG. 3A
Method: Male Sprague-Dawley rats are housed together in groups of three animals under standard conditions with unrestricted access to food and water. All experiments are conducted according to the ethical guidelines for investigations of experimental pain in conscious animals (Zimmerman, 1983).
Assessment of formalin-induced flinching behavior in normal, uninjured rats (body weight 200-300 g) is made after formalin (2.5% in saline, 50-100 μl, s.c.) is injected into the plantar surface of the hindpaw using a 27 G needle. Rats are pretreated with test compounds either administered intravenously (IV), by subcutaneous injection (SC) or by orally (PO).
Nociceptive behavior is determined manually every 5 min by measuring the amount of time spent in each of four behavioral categories: 0, treatment of the injected hindpaw is indistinguishable from that of the contralateral paw; 1, the injected paw has little or no weight placed on it; 2, the injected paw is elevated and is not in contact with any surface; 3, the injected paw is licked, bitten, or shaken. A weighted nociceptive score, ranging from 0 to 3 is calculated by multiplying the time spent in each category by the category weight, summing these products, and dividing by the total time for each 5 min block of time. (Coderre et al., Pain 1993; 54: 43). On the basis of the resulting response patterns, […] of nociceptive behavior are identified and scored: first phase (P1; 0-5 min), interphase (Int; 6-15 min), second phase (P2; […]), phase 2A (P2A; 16-40 min) and phase 2B (P2B; 41-60 min).
Statistical analysis is performed using the Prism™ 4.01 software package (GraphPad, San Diego, Calif., USA). The difference in response levels between treatment groups and control vehicle group is analyzed using an ANOVA followed by Bonferroni's method for post-hoc pair-wise comparisons. A p value <0.05 is considered to be significant.

[4] = target: T2, hASIC1a (Homo sapiens, UniProt P78348); assay: Fluorescent calcium dye (Fluo-4-NW) assay in cells expressing hASIC1a (Example 1); type: cell-based; details: CHO cells stably expressing hASIC1a, mild acidic buffer, increasing concentrations; FIGS. 1A-1C
T2 construct: expressed in transfected cells
T2 sequence (P78348 1-528): T1 sequence (P78348 1-528)
Method: ASIC1a expressing CHO cells are grown in culture medium (DMEM with 10% FBS), in polystyrene culture flasks ([…]) at 37° C. in a humidified atmosphere of 5% CO2. Confluency of cells should be 70-90% on day of plating. Cells are rinsed with 10 ml of PBS and cells are re-suspended by addition of culture medium and trituration with a 25 ml pipette. The cells are seeded at a density of approximately 10^4 cells/ml (50 μl/well and then brought to a total volume of 150 μl/well with culture medium, following 30 minutes incubation) in black-walled, clear bottom, 96-well plates pre-treated with poly-D-lysine (from BD Bioscience). Plated cells were allowed to proliferate for 48-72 h before loading with dye. Fluo-4-NW (500 μg, DiscoveRX) is dissolved in 110 μl DMSO. The Fluo-4-NW stock solution (1000×) is diluted with the assay buffer. A water soluble stock solution (100×) of probenicid (DiscoveRX) and a stock solution (1000×) of pluronic acid (P-127, Molecular Probes) are also added in the loading buffer containing Fluo-4NW dye. The culture medium is aspirated from the wells, and 100 μl of the Fluo-4-NW loading solution is added to each well. The cells are incubated at 37° C. for 30 min. followed by 30 min. incubation at room temperature. The assay buffer contains 90 mM NaCl, 5 mM KCl, 4 mM CaCl2, 0.8 mM MgSO4, 50 mM NMDG, 5 mM Glucose-D, 10 mM HEPES, pH 7.4. After the loading time, the loading buffer is not removed and the fluorescence is measured in FlexStation™ (Molecular Devices, USA), or any other suitable equipment known to the skilled in the art. Temperature: 25° C. First addition: 50 μl test solution at a rate of 26 μl/sec and a starting height of 125 μl. […] Reading intervals: pre-incubation—120 sec. antagonist phase, addition of MES at 145 sec. and reading time with agonist 100 sec (total run time of 240 sec.). Fluorescence obtained after stimulation is corrected for the mean basal fluorescence (in modified Assay Buffer). […] Gated-channel activity was determined by measuring intracellular calcium variation using a fluorescent calcium dye (Fluo-4-NW).

Row | IC50 [1] [µM] | reduction in the current evoked by a mild pH stimulation [1] | inhibition of acid-induced hASIC1a activity (intracellular calcium variation) [4] | Compound | mechanical hyperalgesia [2] | size of the inflammation [2] | thermal hyperalgesia [2] | pain intensity as evaluated by the licking behavior [3]
1 | 0.1 to 10 | clear dose-dependent reduction | dose-dependently inhibited | Cc1cc(OC2CCN(Cc3ccccc3C(=O)O)CC2)c2cccc(F)c2n1 [Compound 1] | reversed | reduced | reversed | dose-dependent reduction
2 | 0.1 to 10 | clear dose-dependent reduction | dose-dependently inhibited | Cc1cc(OC2CCN(Cc3ccccc3F)C(C)C2)c2cccc(F)c2n1 (stereo not shown) [Compound 6, 8-Fluoro-4-[1-(2-fluoro-benzyl)-2-methyl-piperidin-4-yloxy]-2-methyl-quinoline] | – | – | – | –
